Patent US9517934B2, “Process for the generation of chlorine dioxide” (The United States of America as Represented by the …, priority 2013, dated 2016)

What was measured:
[1] = diprotic, cited from earlier work
[2] = test system: Bacillus amyloliquefaciens spores; format: cell-based
[3] = test system: Bacillus anthracis Sterne spores; format: cell-based; conditions: cotton/nylon fabric, 200, 80, or 40 ppm chlorine dioxide, 10 minutes

Structure (SMILES) | pKa1 ([1]; first dissociation) | pKa2 ([1]; second dissociation) | presence of B. amyloliquefaciens spores after treatment [2] | log reduction of B. anthracis Sterne spores [3]
N=C(N)S(=O)O [FSA, Formamidinesulfinic acid] | ≤ 2 | ~9 |  | 
[O][Cl+][O-] [chlorine dioxide] |  |  | significantly reduced but did not completely eliminate | 7.50 log reduction
